The values below are quoted from earlier work in US7718595B2, “Light duty liquid cleaning compositions and methods of manufacture and use thereof comprising organic acids” (priority 2008, dated 2010).

For data set [1] the following is noted: list category.
Assay in data set [2]: not given
This is another data set of the same source.

For the compound `CCO` [Ethanol], the “EPA Inert List” value in data set [1] is reported as 4B.

`CC(O)C(=O)O` (centres unmarked) [Lactic acid]: the pKa entry is “about 3.8”. In addition, the “EPA Inert List” value in data set [1] was 4B. Consider `CCCCCCCCCCCC(=O)NCCC[N+](C)(C)CC(=O)[O-]` [Laurylamidopropyl Betaine], for which the “EPA Inert List” value in data set [1] is listed as 3. `O=S(=O)([O-])[O-].[Mg+2]` [Mg2SO4]: the “EPA Inert List” value in data set [1] is listed as 4A.

Take `O=C([O-])CN(CCN(CC(=O)[O-])CC(=O)[O-])CC(=O)[O-].[Na+].[Na+].[Na+].[Na+]` [Na4EDTA]: the “EPA Inert List” value in data set [1] is given as 4B. As for `O=P(O)(O)OP(=O)(O)OP(=O)(O)O` [Sodium tripolyphosphate], the solubility in water entry in data set [2] is recorded as “about 14 wt-%”. As for sodium xylene sulfonate [SXS], the “EPA Inert List” value in data set [1] was 3.
